Laboratory results: patent US20120220535A1, “CYCLIC-GLUR6 ANALOGS, METHODS OF TREATMENT AND USE” (priority 2009, published 2012)
Entries after “also recorded” stand apart in the source; their conditions may differ.

Legend:
[1] = test system: acute slices of rat retinal and brain tissue; assay: Multi-electrode array electrophysiological screen for neuroprotection against kainate- or NMDA-induced death; assay type: cell-based; conditions: 30 uM; pretreatment, or cotreatment with an NMDA receptor agonist; slices perfused about 30 min with NMDA or kainate agonists
From the text: One aspect of the present invention usefully employs electrophysiological screening of Structure 1. Particular attention is drawn to an electrophysiological assay that rapidly screens for compounds which are inhibitors that target neuron-specific PDZ domains. Recordings of cellular activity were made from acute slices of rat retinal and brain tissue to examine the effects of Structure 1 on synaptic Kainate/AMPA, NMDARs and to test for protection against excitotoxic insults. Kainate/AMPA and NMDAR components were distinguished pharmacologically. Noted are the selective AMPA-antagonist NBQX and the competitive NMDA-antagonist CPP. A multi-electrode array was used that enabled examination of activity from sixty neurons simultaneously. This array addressed whether a test compound provided neuroprotection against kainate or N-methyl-D-aspartic acid (NMDA)-induced death. Briefly, slices were perfused for prolonged periods (about 30 min) with NMDA or kainate agonists until activity in half of the neurons is lost and responses cannot be rescued by washing out the NMDA or kainate (assumed to be resulting from neuronal death).

hippocampal neurons = assay: Excitotoxic insult in hippocampal neurons (loss of functional activity); assay type: cell-based; conditions: co-application with excitotoxic insult
From the text: This loss was prevented by the co-application of the compound of Structure 1. Results were confirmatory of the retinal data and extends it into tissues that are more strongly associated with CNS disorders such as Stroke and neurodegenerative diseases. Noted is therapeutic treatment for autism disorders and cognitive decline symptomatology conditions.

[2] = Uptake in the retina after intravitreal injection of fluorescently tagged compound; assay type: in vivo
From the text: Uptake in the retina was observed as follows. […] In numerous populations of retinal neurons located in both the ganglion cell (GCL) and inner nuclear layers.

[3] = Intrathecal injection in rats, distribution in spinal cord and brain; assay type: in vivo
Procedure: Intrathecal injection of Structure 1 compound in rats was tested. Rats were prepped for intrathecal injection containing 16 nmol of Structure 1 compound at the level of CV2. 24 hrs following the injection the rats were perfused with 4% PFA and frozen cross-sections of the cord were mounted on glass slides and photographed.

ischemic episode = assay: Therapeutic protocol in stroke (Example 2); assay type: in vivo, human; conditions: 50 mg/Kg i.v. within 2 hours of onset; outcome within 48 hours; person
Procedure: A person presents with an ischemic episode resulting sudden numbness the face, and left arm, confusion, and trouble speaking. […] Doses of from about 1 to about 100 mg/Kg are noted.

[4] = rats, 16 nmol intrathecal at CV2, 24 hrs after injection

For “CONH2-(Arg)7-Cys-Cys-Lys-Asn-Tyr-Lys-c[-Lys-Thr-Glu(βAla)Val [Structure 1]”, the “prevention of neuronal death / cell death” value [1] was “provided efficacy and potency in preventing neuronal death; also recorded: prevented cell death”, the “permanent loss of functional activity after excitotoxic insult” value (hippocampal neurons) was “prevented” and the “uptake pattern in retina” value ([2]; 1.5-6 nmol, 6 hrs following intravitreal injection) was roughly 50%. The “accumulation within ganglion cell axons” value ([2]; intravitreal injection, labeling at the optic nerve head) was “selectively accumulated within ganglion cell axons”, the “crossing of vitreal/retina barrier” value ([2]; tagged with a fluorescent marker, administered intravitrealy) was “crossed the vitreal/retina barrier” and the “accumulation in brain regions after cervical intrathecal injection” value [3, 4] was “accumulate in cells located in the cortex, hippocampus, brainstem and striatum”. The “crossing of pia mater/brain barrier and accumulation in spinal cord neurons” value [3, 4] was “crosses the pia mater/brain barrier and selectively accumulates in neurons located within the gray matter of the cord”, the “crossing of pia mater/brain barrier” value ([3]; tagged with a fluorescent marker, localizes in neurons within retina, spinal cord and brain) was “readily cross the pia mater/brain barrier” and the “patient outcome after ischemic episode” value (ischemic episode) was “recovers without significant brain damage”.
